“Also recorded” adds a separate entry of the source.
Key:
[1] = test system: Keap1; assay: HMOX1 induction after Keap1 silencing (shRNA); assay type: cell-based, human; details: NHLF cells, FIG. 6
Experimental: Normal human lung fibroblasts were plated in a 12-well tissue culture dish at 16,000 cells/well and allowed to attach overnight. Regular medium was then replaced with 200 μl of fresh growth medium containing 8 μg/ml hexadimethrine bromide (polybrene). Lentiviral transduction particles were then added in the following amounts: Control shRNA (1.1×10^7 TU/ml, Sigma, cat# SHC002V), 15 μl for an MOI of 10; KEAP-1 shRNA (6.3×10^6 TU/ml, Sigma, cat# SHCLNV-TRCN0000046092), 63 μl for an MOI of 20. After 4 hours in the cell culture incubator, another 200 μl of growth medium was added on top of the original volume. Cells were replenished the next day with fresh complete growth medium and were allowed to recover for 24 hours, after which selection medium was applied (complete medium with 1 μg/ml puromycin).
Another method of testing the role of the Nrf2 regulatory pathway on compound activity is to determine the effect of silencing Keap1 on HMOX1 gene expression. It is known that deleting Keap1 will result in the induction of Nrf2 dependent genes but not, to any significant degree, HMOX1. The proposed explanation for this observation is that HMOX1 requires the concomitant derepression of Bach1 activity and that this event is more dependent on active processes (e.g., heme binding, changes in redox potential of the cell, phosphorylation of Bach1, etc.). We therefore tested the ability of Compound 13 and tool compounds to induce HMOX1 in the presence of silencing of Keap1 in normal human lung fibroblasts.
Normal human lung fibroblasts were tested with DMSO, CoPP, Compound 13, and two derivatives including Compound 4 and Compound 8. An electrophile, Compound 1, was also included in the test set. […] On the other hand, induction of HMOX1 by the electrophile Compound 1 was inhibited.

[2] = test system: HMOX1; assay: mRNA expression (Quantigene Plex) in NHLF cells: HMOX1; assay type: cell-based, human; details: Table 6, 6 h, mRNA normalized to GAPDH, above DMSO treated cells
Experimental: (§1) Secondary growth of NHLF cells were used for all assays. Cell were thawed and then placed into culture in T225 flasks. The cells were grown to 80% confluency and harvested by washing once with HEPES buffered saline solution and then trypsinizing. Equal numbers (7×10^3 cells per well) of NHLF cells were plated in 96 well tissue culture plates (Corning). Cells were incubated overnight in FGM-2 medium prior to exposure to compound. Cells were treated with either DMSO or a compound as described below for 6 h. Preparation of cell lysates was carried out according to instructions using the Quantigene Reagent system 2.0 protocol (Panomics). mRNA induction was detected from cell lysate using the Quantigene Plex 2.0 Assay Kit (Panomics) on the Luminex platform (BIO-RAD). Expression of GAPDH mRNA was used as the internal control for the Quantigen Plex 2.0 Assay. The data in Tables 5 and 6 represents the fold change of target mRNA expression, normalized to control values, above DMSO treated cells.

[3] = test system: NQO1; assay: mRNA expression (Quantigene Plex) in NHLF cells: NQO1; assay type: cell-based, human; details: Table 6, 6 h, mRNA normalized to GAPDH, above DMSO treated cells
Experimental: as §1

[4] = test system: TXNRD1; assay: mRNA expression (Quantigene Plex) in NHLF cells: TXNRD1; assay type: cell-based, human; details: Table 6, 6 h, mRNA normalized to GAPDH, above DMSO treated cells
Experimental: as §1

[5] = test system: HSPA6; assay: mRNA expression (Quantigene Plex) in NHLF cells: HSPA6; assay type: cell-based, human; details: Table 6, 6 h, mRNA normalized to GAPDH, above DMSO treated cells
Experimental: as §1

[6] = test system: ICAM; assay: mRNA expression (Quantigene Plex) in NHLF cells: ICAM; assay type: cell-based, human; details: Table 6, 6 h, mRNA normalized to GAPDH, above DMSO treated cells
Experimental: as §1

[7] = test system: GADD45A; assay: mRNA expression (Quantigene Plex) in NHLF cells: GADD45A; assay type: cell-based, human; details: Table 6, 6 h, mRNA normalized to GAPDH, above DMSO treated cells
Experimental: as §1

[8] = test system: NHLF cells; assay: ROS measurements (H2DCF-DA imaging); assay type: cell-based, human; details: 1 hr; for ROS production (in words): cell-by-cell imaging, FIG. 3A/3B; for elevation of ROS production: relative to untreated controls, FIG. 3A
Experimental: Secondary growth of NHLF cells were used for all assays. Cells were cultured as above. Cells were plated into 384-well BD-Optilux Plates at 2,000 cells/well and cultured overnight at 37° C. and 5% CO2. The following day, cell were washed and 2,7-dihydrodichlorofluorescin diacetate (H2DCF-DA), 10 μM ferric ammonium citrate (FAC), and Hoechst stain were added to cells for 30 min. The cells were washed once with PBS to remove any H2DCF-DA not taken up by cells. Test compounds were prepared in FBM-2 media at the desired concentrations. The plates and stain-treated cells were incubated with test compounds for 1 hr at 37° C. and 5% CO2. Following the incubation period, ROS generation was determined by imaging the cells on a GE INcell 1000 imager (Hoechst Ex. 360 Em. 535; H2DCF-DA 488 Ex. 480 Em. 535). ROS levels were determined and quantified using GE IN Cell Analyzer Software.
In addition to gene profiling, the requirement for ROS generation or chemical reactivity was tested. ROS generation was measured using an automated imaging technique. Compound 13 as well as two other compounds that were found in the screening set were tested in this experiment. Untreated NHLF cells, NHLF cells treated with the HMOX1 inducer CoPP (a negative control), and NHLF cells treated with curcumin or celestrol (positive controls) were included as controls. […] Further experiments were also conducted on chemical derivatives of Compound 13. In those experiments, all compounds tested were found not to induce an elevation of ROS levels in the cell (FIG. 3B). Thus, Compound 13 and related compounds represent a class of agents that elevate HMOX1 production without elevating ROS production.

[9] = test system: NHLF cells; assay: Cytoprotection of cisplatin (CDDP)-treated NHLF cells (propidium iodide staining); assay type: cell-based
Experimental: (§2) A key outcome of Bach1 derepression and Nrf2 activation are the induction of cytoprotective genes. A method to test such cytoprotection is to assess the ability of a compound to protect normal human cells such as lung fibroblasts from toxicity due to cisplatin exposure. A model of cellular cytoprotection was established whereby normal human lung fibroblasts were treated with Bach1 modulators and then subsequently exposed to cisplatin. NHLF cells are very sensitive to cisplatin exposure; following a dose of 200 uM cisplatin, >90% of NHLF cells are propidium iodide positive, a measure of cell death.

[10] = test system: HMOX1; assay: HMOX1 induction in NHLF cells in the cisplatin cytoprotection model; assay type: cell-based, human; details: compound 24 hours prior to cisplatin, FIG. 8
Experimental: as §2

[11] = test system: HMOX1; assay: Effect of NAC on compound induction of HMOX gene expression; assay type: cell-based, human; details: NHLF cells pretreated with 5 mM NAC 1 hr, compound 6 h, FIG. 4
Experimental: NHLF cells were grown to 80% confluency and harvested by washing once with HEPES and then trypsinizing. Equal numbers (7×10^4 cells per well) of NHLF cells were plated in 96 well tissue culture (Corning) plates. Cells were incubated overnight in FGM-2 medium prior to exposure to compound. Cells were pretreated with 5 mM N-acetyl cysteine for 1 hr. Cells were treated with either DMSO or compound for 6 h. Preparation of cell lysates was carried out according to Quantigene Reagent system 2.0 protocol (Panomics). Heme oxygenase mRNA induction was detected from cell lysate using the Quantigene Plex 2.0 Assay Kit (Panomics) on the Luminex platform (BIO-RAD). Expression of GAPDH mRNA was used as the internal control for the Quantigen Plex 2.0 Assay. Heme oxygenase data represents the fold change, normalized to control values, above DMSO treated cells.
A further test of the hypothesis that Compound 13 induces HMOX1 with minimal alteration of cellular redox levels or chemical reactivity was carried out by treating cells with N-acetyl cysteine (NAC). This compound acts to restore cellular glutathione levels and thus prevent oxidative stress. The degree to which NAC can suppress HMOX1 induction is an indicator of the amount of chemical reactivity or ROS stress that a compound is imposing on the cell and thus activating phase II gene transcription. […] Coupled with the data shown in FIG. 3, it is concluded that Compound 13 induces HMOX1 with minimal elevation of ROS or NAC-sensitive chemical reactivity.

## CCOC(=O)/C=C/c1cnc2ccccc2c1S(=O)(=O)C1CCOC1C (stereo not drawn) [Compound 1, (E)-3-[4-(2-Methyl-tetrahydro-furan-3-sulfonyl)-quinolin-3-yl]-acrylic acid ethyl ester]
[1]
  HMOX1 induction in the presence of Keap1 silencing: inhibited

## CC1OCCC1S(=O)(=O)c1c(-c2ccc(C(F)(F)F)cc2)cnc2ccccc12 (stereo not drawn) [Compound 3, 4-(2-Methyl-tetrahydro-furan-3-sulfonyl)-3-(4-trifluoromethyl-phenyl)-quinoline]
[2]
  HMOX1 (fold induction): 45.17 fold induction
[3]
  NQO1 (fold induction): 1.69 fold induction
[4]
  TXNRD1 (fold induction): 1.47 fold induction
[5]
  HSPA6 (fold induction): 2.71 fold induction
[6]
  ICAM1 (fold induction): 1.47 fold induction
[7]
  GADD45A (fold induction): 1.37 fold induction
[8]
  ROS production (in words): no demonstrable increase in ROS production

## COC(=O)c1ccc2[nH]c(Nc3nc4ccccc4s3)nc2c1 [Compound 4, 2-(Benzothiazol-2-ylamino)-1H-benzoimidazole-5-carboxylic acid methyl ester]
[2]
  HMOX1 (fold induction): 56.15 fold induction
[3]
  NQO1 (fold induction): 1.85 fold induction
[4]
  TXNRD1 (fold induction): 1.74 fold induction
[5]
  HSPA6 (fold induction): 1.08 fold induction
[6]
  ICAM1 (fold induction): 0.77 fold induction
[7]
  GADD45A (fold induction): 2.00 fold induction
[8]
  ROS production (in words): no demonstrable increase in ROS production
[1]
  HMOX1 induction in the presence of Keap1 silencing: unaffected in their ability to induce HMOX1 in the presence of Keap1 silencing; also recorded: behaves similarly to CoPP induction

## COC(=O)[C@]12CCC(C)(C)CC1C1C(=O)C=C3[C@@]4(C)CC(C#N)C(=O)C(C)(C)[C@@H]4CC[C@@]3(C)[C@]1(C)CC2 (stereo partly drawn) [Compound 5, (4aS,6aR,6bS,8aR,12aS)-11-Cyano-2,2,6a,6b,9,9,12a-heptamethyl-10,14-dioxo-1,3,4,5,6,6a,6b,7,8,8a,9,10,11,12,12a,14, 14a,14b-octadecahydro-2H-picene-4a-carboxylic acid methyl ester, reference compound]
[2]
  HMOX1 (fold induction): 23.97 fold induction
[3]
  NQO1 (fold induction): 2.01 fold induction
[4]
  TXNRD1 (fold induction): 1.83 fold induction
[5]
  HSPA6 (fold induction): 1.60 fold induction
[6]
  ICAM1 (fold induction): 1.16 fold induction
[7]
  GADD45A (fold induction): 0.89 fold induction
[8]
  ROS production (in words): no demonstrable increase in ROS production

## Cc1nc(Nc2nc3cc(C(=O)NCCOCCN)ccc3[nH]2)sc1C [Compound 11, 2-(4,5-Dimethyl-thiazol-2-ylamino)-1H-benzoimidazole-5-carboxylic acid [2-(2-amino-ethoxy)-ethyl]-amide]
[9]; NHLF cells, compound 24 hours prior to cisplatin exposure, FIG. 8
  protection against cisplatin toxicity: failed to protect NHLF cells against cisplatin toxicity; also recorded: failed to protect cells from CDDP-mediated cytotoxicity
[10]
  HMOX1 induction: inactive HMOX1 inducers; also recorded: did not induce HMOX1

## CC1=C(O)C(=O)C=C2C1=CC=C1[C@@]2(C)CC[C@@]2(C)[C@@H]3C[C@](C)(C(=O)O)CC[C@]3(C)CC[C@]12C [celestrol, reference compound]
[8]
  elevation of ROS production: ~2 fold
[11]
  effect of N-acetyl cysteine (NAC) on HMOX1 induction: inhibited nearly fully by NAC; also recorded: fully suppressed in the presence of NAC

## N.N.[Cl][Pt][Cl] [cisplatin, reference compound]
[9]; 200 uM cisplatin
  NHLF cells propidium iodide positive (cell death): > 90%

## COc1cc(/C=C/C(=O)CC(=O)/C=C/c2ccc(O)c(OC)c2)ccc1O [curcumin, reference compound]
[8]
  elevation of ROS production: approximately 3 fold
[11]
  effect of N-acetyl cysteine (NAC) on HMOX1 induction: inhibited nearly fully by NAC; also recorded: fully suppressed in the presence of NAC
